What was measured:
Type in all cases: cell-based
Nedd8-cullin = experiment: Cullin neddylation, protein immunoblotting in HepG2 cells
Excerpt: Cells were then collected and assayed for protein immunoblotting. […]
DCN1 protein is believed to harbor a UBC12 binding pocket. Scott et al, Cell 757:1671-84 (2014). […] Scott et al. (2014). The N-terminal acetylation acts as an avidity enhancer within an interconnected multiprotein complex. Science, 554:674-8 (2011). Specifically, n-terminal of UBC12 is acetylated (FIG. 1A, yellow) and completely buried inside the hydrophobic pocket within DCN1 (4gao.PDB, FIG. 1B). Small molecule inhibition of the DCN1 hydrophobic pocket would presumably disrupt UBC12 binding, and thus disrupt Neddylation of Cullin protein. Potential ligands were assessed that might fit the DCN1 domain cavities (FIG. 1B). 3-(pentylamino)-5-phenylcyclohex-2-en-1-one was selected for future testing (FIG. 1C). […] MLN4924 was used as a positive control.

[1] = tested on: Clvd-caspase3 and Clvd-PARP; experiment: Apoptosis markers, protein immunoblotting in HepG2 cells
PBMC cells = experiment: LPS-induced TNF release from PBMC cells (ELISA); conditions: various concentrations for 2 h, then LPS (10 ng/ml) for 12 h (FIG. 10A)
Experimental: (§1) Cells were then treated with LPS (10 ng/ml) for additional 2 h. Media were then collected and TNF concentration was determined by ELISA. […] Lung tissue was collected and assayed for immunoblotting. Culture media was collected and assayed for cytokines.
Since SCF machinery is believed to be essential for NF-kB activation, it was investigated whether the DCN1 inhibitors could affect inflammation. 3-(decylamino)-5-phenylcyclohex-2-en-1-one was first tested in PBMCs cells. Briefly, PBMC cells were treated with 3-(decylamino)-5-phenylcyclohex-2-en-1-one at various concentrations for 2 h before exposed to LPS (10 ng/ml) for 12 h.

human lung tissue = experiment: LPS-treated human lung slices, cytokines and immunoblotting
Experimental: as §1
3-(decylamino)-5-phenylcyclohex-2-en-1-one was next tested in human lung tissue. Human lung slices were pretreated with 3-(decylamino)-5-phenylcyclohex-2-en-1-one for 18 h before LPS treatment (100 ng/ml) for additional 4 h. […] 3-(decylamino)-5-phenylcyclohex-2-en-1-one reduced nedd8-cullins level and rescued IκBα in a dose dependent manner.

[2] = human lung slices, dose dependent

CCCCCCCCCCNC1=CC(=O)CC(c2ccccc2)C1 (stereo not shown) [BC1558, 3-(decylamino)-5-phenylcyclohex-2-en-1-one]
neddylation of several cullin isoforms (Nedd8-cullin; 10 μM, time dependent (FIG. 6A)): drastically reduced | neddylation of several cullin isoforms (Nedd8-cullin; 48 h, dose dependent (FIG. 5A)): drastically reduced | activity compared with MLN4924 (Nedd8-cullin; 48 h, various concentration (FIG. 4)): comparable activity | reducing Cullin Neddylation (Nedd8-cullin; 48 h, various concentrations (FIG. 3C)): exhibited activity | apoptosis markers Clvd-caspase3 and Clvd-PARP ([1]; 10 μM, various times (FIG. 6A)): effectively increased | apoptosis markers Clvd-caspase3 and Clvd-PARP ([1]; 48 h, various concentrations (FIG. 5A)): effectively increased | LPS-induced TNF release from PBMC cells (PBMC cells): potently inhibited | IκBα (human lung tissue; [2]): rescued | nedd8-cullins level (human lung tissue; [2]): reduced | LPS induced IL1, IL6 and TNF release from lung tissue (human lung tissue; pretreated 18 h, LPS 100 ng/ml for 4 h): potently inhibited

— patent US20200405715A1, “COMPOSITIONS AND METHODS FOR TREATING CANCER AND INFLAMMATORY DISEASES” (University of Pittsburgh - Of the Commonwealth System of …, priority 2016, published 2020)
